From patent US4876282A, “1-Phenylalkylamines as selective serotonin uptake inhibitors” (Eli Lilly and Company, priority 1987, dated 1989) come the findings set out here.

Where a name gives a salt, the structure may show the parent alone.

In the assay the test system is 5HT uptake. The assay is described as follows: Inhibition of 5HT uptake in vitro (synaptosomal uptake of 3H-serotonin, rat cerebral cortex). The format is biochemical, Sprague-Dawley rat. To be noted: rat cortical synaptosomes, 37° C., 5 min, 50 nM 3H-5HT; tested as oxalate salt; read-out: IC50 5HT (concentration needed to inhibit 50% of serotonin uptake). As for the experimental part: This general procedure is set forth by Wong et al., in Drug Development Research 6:397-403 (1985).
Male Sprague-Dawley rats (110-150 g) from Harlan Industries (Cumberland, Ind.) were fed Purina Chow ad libitum for at least 3 days before being used in the studies. Rats were killed by decapitation. Whole brains were removed and dissected. Cerebral cortex was homogenized in 9 volumes of a medium containing 0.32 M sucrose and 10 mM glucose. Crude synaptosomal preparations were isolated after differential centrifugation at 1,000 g for 10 min. and 17,000 g for 28 min. The final pellets were suspended in the same medium and kept in ice until use within the same day.
Synaptosomal uptake of ^3 H-serotonin(^3 H-5-hydroxytryptamine, ^3 H-5HT) was determined as follows. Cortical synaptosomes (equivalent to 1 mg of protein) were incubated at 37° C. for 5 min in 1 ml of Krebsbicarbonate medium containing also 10 mM glucose, 0.1 mM iproniazid, 1 mM ascorbic acid, 0.17 mM EDTA and 50 nM ^3 H-5HT. The reaction mixture was immediately diluted with 2 ml of ice-chilled Krebs-bicarbonatebuffer and filtered under vacuum with a cell harvester (Brandel, Gaithersburg, Md). Filters were rinsed twice with approximately 5 ml of ice-chilled 0.9% saline and were transferred to a counting vial containing 10 ml of scintillation fluid (PCS, Amersham, Arlington Heights, Il). Radioactivity was measured by a liquid scintillation spectrophotometer. Accumulation of ^3 H-5HT at 4° C. represented the background and was subtracted from all samples.
The numbers in parentheses represent percent inhibition at 1000 nM.
`CNC(CCCc1cccc2ccccc12)c1ccccc1` (stereo not shown) [Example 3, N-Methyl-1-phenyl-4-(1-naphthalenyl)butyl-aminium oxalate]: the IC50 stood at 70 nM.

Take `NC(CCCc1cccc2ccccc12)c1ccccc1` (stereo not shown) [Example 1, 1-Phenyl-4-(1-napthalenyl)butylaminium oxalate]: the IC50 was 240 nM.

Turning to `CN(C)C(CCc1cccc2ccccc12)c1ccccc1` (stereo not shown) [Example 4, N,N-Dimethyl-1-phenyl-3-(1-naphthalenyl)propylaminium oxalate], the IC50 came out at 240 nM.

As to `CN(C)C(CCCc1cccc2ccccc12)c1ccccc1` (stereo not shown) [Example 2, N,N-Dimethyl-1-phenyl-4-(1-naphthalenyl)butylaminium oxalate], the IC50 came to 30 nM.
